# In PubChem BioAssay (NCI):
#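 In this assay, cells in 96-well plates receive the compound at five concentrations for 48 hours. Endpoints are linearly interpolated between the surrounding concentrations. Definition used: TGI = concentration required for complete inhibition of growth.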
# Test system: NCI-H460 lung
# Assay: NCI-60 cell line screen, 48 h
row,SMILES,TGI [µM]
1,CN(C)CCN(c1ccccn1)c1ccccn1,> 100
2,O=C(O)c1nc2ccc(C(F)(F)F)cc2[nH]c1=O,> 100
3,CN(CCN1CCCC1)C1CCc2cc(Cl)c(Cl)cc2C1 (configuration not stated),31.5
4,COC(=O)CNC(=O)C(CSC(=O)OCC1c2ccccc2-c2ccccc21)NC(=O)CCC(NC(=O)OCC1c2ccccc2-c2ccccc21)C(=O)OC (configuration not stated),59.2
5,CC(C)NC(=O)OCc1c(COC(=O)NC(C)C)n(C)c2c1ccc1sccc12,27.2
6,O=C(CC(NC(=O)C(F)(F)F)C(=O)O)OCc1ccccc1 (configuration not stated),> 100
7,CN(/N=C1\C(=O)Nc2ccccc21)c1ccccc1,> 100

# Test system: MALME-3M melanoma
# Assay: NCI-60 cell line screen, 48 h
row,SMILES,TGI [µM]
1,COc1ccc2ccc3oc(=O)c(C)cc3c2c1,> 100
2,CCCCCCN(CCCCCC)C(=S)N/N=C(\C)c1ccccn1,3.17
3,O=c1c(F)cn2c(=O)n1CCCCCCCn1c(=O)c(F)cn(c1=O)CCCCCCC2,88.8
4,Cc1nnc2n(c1=O)CCCN2C,> 100
5,O=C(ON=C1c2ccccc2C(Br)C(Br)c2ccccc21)c1ccccc1 (configuration not stated),37.1
6,Nc1ncnc2c1nnn2C1C=CC(CP(=O)(O)O)C1 (configuration not stated),> 100
7,CC(=O)c1ccc(Oc2c3ccccc3nc3ccccc23)cc1,27.2
8,Cn1c2ccccc2n2c3ncccc3c(=O)c(C#N)c12,> 100
9,S=C(Cc1ccc2c(c1)Sc1ccccc1O2)N1CCOCC1,90.2
10,C[n+]1cc2cc(O)c(O)cc2c2ccc3cc(O)c(O)cc3c21,12.9
11,COc1ccc(N=Nc2c(-c3c(OC)cc4occc4c3OC)[nH]c(=O)c(C#N)c2C)cc1,> 100
12,O=C(/C=C/c1ccc(Cl)cc1)Oc1ccc(C=C2CCC/C(=C\c3ccc(OC(=O)/C=C/c4ccc(Cl)cc4)cc3)C2=O)cc1,> 100
13,COc1ccc2nc(NC(=O)/C(C#N)=C/c3ccccc3)sc2c1,> 100
14,Cc1c(C)n(-c2ccccc2)c2nc(S(C)=O)nc(S(C)=O)c12 (configuration not stated),4.09
15,CC1(C)CC(=O)C2=C(C1)C(c1ccccc1Cl)C1C(=O)CC(C)(C)CC1(O)O2 (configuration not stated),> 100
16,Cc1ccc2c(c1C)C(=O)C1(Cc3cc4c(cc3C1=O)CCC4)C2 (configuration not stated),> 100
17,Clc1cccc(-c2sc(-c3cccs3)cc2Cc2cccs2)c1,> 10
18,c1ccc(C2=NC3OC2c2ccccc23)cc1 (configuration not stated),> 10
19,CCOC(=O)CSc1nc(N)c2c(-c3ccccc3)c3c(nc2n1)CCCC3,> 100

row,SMILES,TGI [µM]
1,COC(=O)/C=C(/C=C1/C(C#N)=C(N)N(c2ccc(Cl)cc2)C1(C)/C(=C\C(=O)OC)C(=O)OC)C(=O)OC (configuration not stated),58.8
2,O=c1c2c3c(sc2[nH]c(=S)n1-c1ccccc1)CCCc1ccc([N+](=O)[O-])cc1-3,> 100
3,CCOC(=O)c1c(N2CCCC2)[nH]c(=O)c(C(c2ccc(OC)cc2)c2c(O)c(C(=O)OCC)c(N3CCCC3)[nH]c2=O)c1O,> 100
4,CCOC1C=CC(=O)C(CO)O1 (configuration not stated),25.8
5,Cc1c2cccc-2c2cc(O)c3ccccc3c2n1-c1ccc(N(C)C)cc1,29
6,O=c1[nH]c(NCc2ccncc2)nc2nc[nH]c12,> 100
7,O=CC(I)=C(c1ccccc1)c1ccccc1,30.8
8,c1c[nH]c(-c2cccc3nsnc23)c1,> 100
9,Cn1c2ccccc2c2ccc3c(c21)C(=O)c1ccc2c4ccccc4n(C)c2c1C3=O,> 100
10,Cc1ccc(-c2cc(-c3ccco3)c(C#N)c(=S)[nH]2)cc1,> 100
11,NS(=O)(=O)c1nnc(NC(=O)N(c2ccccc2)c2ccccc2)s1,62.5
12,CN(C)CCN(c1ccccn1)c1ccccn1,> 100
13,O=C(O)c1nc2ccc(C(F)(F)F)cc2[nH]c1=O,> 100
14,CN(CCN1CCCC1)C1CCc2cc(Cl)c(Cl)cc2C1 (configuration not stated),33.6
15,COC(=O)CNC(=O)C(CSC(=O)OCC1c2ccccc2-c2ccccc21)NC(=O)CCC(NC(=O)OCC1c2ccccc2-c2ccccc21)C(=O)OC (configuration not stated),76.8
16,CC(C)NC(=O)OCc1c(COC(=O)NC(C)C)n(C)c2c1ccc1sccc12,13.6
17,O=C(CC(NC(=O)C(F)(F)F)C(=O)O)OCc1ccccc1 (configuration not stated),> 100
18,CN(/N=C1\C(=O)Nc2ccccc21)c1ccccc1,> 100

# Test system: COLO 205 colon
# Assay: NCI-60 cell line screen, 48 h
row,SMILES,TGI [µM]
1,COc1ccc2ccc3oc(=O)c(C)cc3c2c1,> 100
2,CCCCCCN(CCCCCC)C(=S)N/N=C(\C)c1ccccn1,2.14
3,O=c1c(F)cn2c(=O)n1CCCCCCCn1c(=O)c(F)cn(c1=O)CCCCCCC2,> 100
4,Cc1nnc2n(c1=O)CCCN2C,> 100
5,O=C(ON=C1c2ccccc2C(Br)C(Br)c2ccccc21)c1ccccc1 (configuration not stated),36.7
6,Nc1ncnc2c1nnn2C1C=CC(CP(=O)(O)O)C1 (configuration not stated),> 100
7,CC(=O)c1ccc(Oc2c3ccccc3nc3ccccc23)cc1,7.55
8,S=C(Cc1ccc2c(c1)Sc1ccccc1O2)N1CCOCC1,> 100
